Like-named read-outs stand apart in the source and are kept apart here.
Columns and labels:
[1] = Aqueous Hydrolysis Stability Assay; format: physicochemical; conditions: 50 mM HEPES buffer pH 7.5, read-out: T1/2 Aq Stability
Procedure: Determination of aqueous stability of the test compounds was performed using HIPLC-MS. A test compound 10 mM stock solution was prepared in DMSO. 10 μl of the DMSO stock solution was dissolved in 990 μl of 50 mM HEPES pH 7.5 buffer or 1:1 (v/v) of Acetonitrile:Water to make a 100 μM solution. Final DMSO concentration was 1%. The solution was kept at room temperature and injected without delay into the LCMS (Waters Xevo TQ-S or Micromass Ultima). Additional injections were performed at appropriate time points. Half-life (T1/2) of the parent conjugate was calculated using the peak area of the parent conjugate at each time point in the linear region of the log-linear plot.

[2] = Rabbit Cornea Homogenate Stability Assay (Rabbit Cornea Esterase Assay); format: in vitro ADME; conditions: New Zealand White, 37° C., half-life of parent conjugate
Procedure: Determining Rabbit Cornea Homogenate stability of the test compounds was performed using HPLC-MS. The assay was performed at two concentrations of Rabbit Cornea Homogenate (0.15 mg/ml and 0.45 mg/ml total protein) so that any hydrolysis observed could be assigned as esterase dependent or not.
Five rabbit corneas (e.g. New Zealand Whites) of approx. 50 mg each were sliced and scraped with a scalpel and tweezers until reduced to small (1-3 mm), thin pieces. These were transferred into a tared vial and accurately weighed, then diluted with 10 volumes aqueous PBS pH7.4
Sample was cooled intermittently on ice and shear homogenized for 3 minutes, then centrifuged for 3 min at 3000 rpm. The supernatant was pipetted off into a vial, and total protein concentration determined at 280 nm. Sample was stored at −78° C.
10 mM Compound stocks were diluted to 100 μM in a 96 deep-well plate: 10 μl of 10 mM Compound stock was added to 990 μl 50 mM HEPES, pH7.5 buffer.
Compounds were further diluted to 10 μM: 100 μl of 100 μM compound was added to 900 μl 50 mM HEPES, pH7.5 buffer.
Esterase homogenate was diluted to 300 ng/μl and 900 ng/μl
A heater shaker was set to 37° C. Into a suitable 96 well plate (Run Plate), 75 μl of 300 or 900 ng/μl esterase homogenate was pipetted into each of the required wells (2 min, 5 min, 10 min, 20 min and 45 min). The plate was sealed and then warmed at 37° C. for 5 min. Another 96 well PCR plate was put on ice (Kill Plate). To this was added 100 μl of MeCN to each well, labelled 0 min 2 min, 5 min, 10 min, 20 min and 45 min. The plate was covered to minimise evaporation. For the T=0 sample only, to the 100 μl cold MeCN stop solution was added 50 μl of 300 or 900 ng/μl esterase homogenate followed by 50 μl of 10 μM compound solution For the remaining timepoints, 75 μl of 10 μM compound solution was added to the Run Plate starting from T=45 min row and ending with T=2 min row. At the appropriate time point, 100 μl of the assay mixture was added to the matching kill plate well containing 100 μl of cold MeCN. Samples were analysed as soon as practicable by LCMS (Waters Xevo TQ-S or Micromass Ultima). Parent conjugate and parent concentrations were determined against appropriate standard response curves and the half-life (T1/2) of the parent conjugate was calculated using the peak area of the parent conjugate at each time point in the linear region of the log-linear plot.

[3] = pH 7.5, Rabbit Cornea Homogenate 0.15 mg/ml total protein, read-out: T1/2 Esterase (min) (0.15 mg/ml Homogenate)
[4] = pH 7.5, Rabbit Cornea Homogenate 0.45 mg/ml total protein, read-out: T1/2 Esterase (min) (0.45 mg/ml Homogenate)

SMILES	half-life at 100 µM ([1]; ND, estimated, in HEPES pH 7.5) [min]	half-life at 100 µM ([1]; HEPES pH 7.5, room temperature) [min]	half-life at 5 µM [2, 3] [min]	half-life at 5 µM [2, 4] [min]
CC[C@H]1OC(=O)[C@H](C)[C@@H](O[C@H]2C[C@@](C)(OC)[C@@H](O)[C@H](C)O2)[C@H](C)[C@@H](O[C@@H]2O[C@H](C)C[C@H](N(C)C)[C@H]2OC(=O)[C@@H](C)OC(C)=O)[C@](C)(O)C[C@@H](C)CN(C)[C@H](C)[C@@H](O)[C@]1(C)O [Compound 8, (2S,3R,4S,6R)-4-(Dimethylamino)-2-(((2R,3S,4R,5R,8R,10R,11R,12S,13S,14R)-2-ethyl-3,4,10-trihydroxy-13-(((2R,4R,5S,6S)-5-hydroxy-4-methoxy-4,6-dimethyltetrahydro-2H-pyran-2-yl)oxy)-3,5,6,8,10,12,14-heptamethyl-15-oxo-1-oxa-6-azacyclopentadecan-11-yl)oxy)-6-methyltetrahydro-2H-pyran-3-yl (R)-2-acetoxypropanoate]	< 3			
CC[C@H]1OC(=O)[C@H](C)[C@@H](O[C@H]2C[C@@](C)(OC)[C@@H](O)[C@H](C)O2)[C@H](C)[C@@H](O[C@@H]2O[C@H](C)C[C@H](N(C)C)[C@H]2OC(=O)[C@@H](C)OC(=O)[C@H](CS)NC(C)=O)[C@](C)(O)C[C@@H](C)CN(C)[C@H](C)[C@@H](O)[C@]1(C)O [Compound 6, (R)-1-(((2S,3R,4S,6R)-4-(Dimethylamino)-2-(((2R,3S,4R,5R,8R,10R,11R,12S,13S,14R)-2-ethyl-3,4,10-trihydroxy-13-(((2R,4R,5S,6S)-5-hydroxy-4-methoxy-4,6-dimethyltetrahydro-2H-pyran-2-yl)oxy)-3,5,6,8,10,12,14-heptamethyl-15-oxo-1-oxa-6-azacyclopentadecan-11-yl)oxy)-6-methyltetrahydro-2H-pyran-3-yl)oxy)-1-oxopropan-2-yl acetyl-L-cysteinate]	< 3			
CC[C@H]1OC(=O)[C@H](C)[C@@H](O[C@H]2C[C@@](C)(OC)[C@@H](O)[C@H](C)O2)[C@H](C)[C@@H](O[C@@H]2O[C@H](C)C[C@H](N(C)C)[C@H]2O)[C@](C)(O)C[C@@H](C)CN(C)[C@H](C)[C@@H](OC(C)=O)[C@]1(C)O [Compound 12, (2R,3R,4R,5R,8R,10R,11R,12S,13S,14R)-11-(((2S,3R,4S,6R)-4-(Dimethylamino)-3-hydroxy-6-methyltetrahydro-2H-pyran-2-yl)oxy)-2-ethyl-3,10-dihydroxy-13-(((2R,4R,5S,6S)-5-hydroxy-4-methoxy-4,6-dimethyltetrahydro-2H-pyran-2-yl)oxy)-3,5,6,8,10,12,14-heptamethyl-15-oxo-1-oxa-6-azacyclopentadecan-4-yl acetate]		> 120	> 120	> 120
CC[C@H]1OC(=O)[C@H](C)[C@@H](O[C@H]2C[C@@](C)(OC)[C@@H](O)[C@H](C)O2)[C@H](C)[C@@H](O[C@@H]2O[C@H](C)C[C@H](N(C)C)[C@H]2OC(=O)COCCOCCOCCOCCO)[C@](C)(O)C[C@@H](C)CN(C)[C@H](C)[C@@H](O)[C@]1(C)O [Compound 4, (2S,3R,4S,6R)-4-(Dimethylamino)-2-(((2R,3S,4R,5R,8R,10R,11R,12S,13S,14R)-2-ethyl-3,4,10-trihydroxy-13-(((2R,4R,5S,6S)-5-hydroxy-4-methoxy-4,6-dimethyltetrahydro-2H-pyran-2-yl)oxy)-3,5,6,8,10,12,14-heptamethyl-15-oxo-1-oxa-6-azacyclopentadecan-11-yl)oxy)-6-methyltetrahydro-2H-pyran-3-yl 14-hydroxy-3,6,9,12-tetraoxatetradecanoate]		5.7		
CC[C@H]1OC(=O)[C@H](C)[C@@H](O[C@H]2C[C@@](C)(OC)[C@@H](O)[C@H](C)O2)[C@H](C)[C@@H](O[C@@H]2O[C@H](C)C[C@H](N(C)C)[C@H]2OC(=O)CCCC[C@@H]2CCSS2)[C@](C)(O)C[C@@H](C)CN(C)[C@H](C)[C@@H](O)[C@]1(C)O [Compound 9, (2S,3R,4S,6R)-4-(Dimethylamino)-2-(((2R,3S,4R,5R,8R,10R,11R,12S,13S,14R)-2-ethyl-3,4,10-trihydroxy-13-(((2R,4R,5S,6S)-5-hydroxy-4-methoxy-4,6-dimethyltetrahydro-2H-pyran-2-yl)oxy)-3,5,6,8,10,12,14-heptamethyl-15-oxo-1-oxa-6-azacyclopentadecan-11-yl)oxy)-6-methyltetrahydro-2H-pyran-3-yl 5-((R)-1,2-dithiolan-3-yl)pentanoate]	< 3			

Other lines, results leading:

half-life at 100 µM ([1]; ND, estimated, in HEPES pH 7.5) [min]	half-life at 100 µM ([1]; HEPES pH 7.5, room temperature) [min]	half-life at 5 µM [2, 3] [min]	half-life at 5 µM [2, 4] [min]	SMILES
	< 3			CC[C@H]1OC(=O)[C@H](C)[C@@H](O[C@H]2C[C@@](C)(OC)[C@@H](O)[C@H](C)O2)[C@H](C)[C@@H](O[C@@H]2O[C@H](C)C[C@H](N(C)C)[C@H]2OC(=O)[C@@H](C)O)[C@](C)(O)C[C@@H](C)CN(C)[C@H](C)[C@@H](O)[C@]1(C)O [Compound 2, (2S,3R,4S,6R)-4-(Dimethylamino)-2-(((2R,3S,4R,5R,8R,10R,11R,12S,13S,14R)-2-ethyl-3,4,10-trihydroxy-13-(((2R,4R,5S,6S)-5-hydroxy-4-methoxy-4,6-dimethyltetrahydro-2H-pyran-2-yl)oxy)-3,5,6,8,10,12,14-heptamethyl-15-oxo-1-oxa-6-azacyclopentadecan-11-yl)oxy)-6-methyltetrahydro-2H-pyran-3-yl (R)-2-hydroxypropanoate]
< 3				CC[C@H]1OC(=O)[C@H](C)[C@@H](O[C@H]2C[C@@](C)(OC)[C@@H](O)[C@H](C)O2)[C@H](C)[C@@H](O[C@@H]2O[C@H](C)C[C@H](N(C)C)[C@H]2OC(=O)[C@H](C)OC(=O)[C@@H](C)O)[C@](C)(O)C[C@@H](C)CN(C)[C@H](C)[C@@H](O)[C@]1(C)O [Compound 7, (2S,3R,4S,6R)-4-(Dimethylamino)-2-(((2R,3S,4R,5R,8R,10R,11R,12S,13S,14R)-2-ethyl-3,4,10-trihydroxy-13-(((2R,4R,5S,6S)-5-hydroxy-4-methoxy-4,6-dimethyltetrahydro-2H-pyran-2-yl)oxy)-3,5,6,8,10,12,14-heptamethyl-15-oxo-1-oxa-6-azacyclopentadecan-11-yl)oxy)-6-methyltetrahydro-2H-pyran-3-yl(S)-2-(((R)-2-hydroxypropanoyl)oxy)propanoate]
	> 120	> 120	> 120	CC[C@H]1OC(=O)[C@H](C)[C@@H](O[C@H]2C[C@@](C)(OC)[C@@H](O)[C@H](C)O2)[C@H](C)[C@@H](O[C@@H]2O[C@H](C)C[C@H](N(C)C)[C@H]2O)[C@](C)(O)C[C@@H](C)CN(C)[C@H](C)[C@@H](OC(=O)CO)[C@]1(C)O [Compound 11, (2R,3R,4R,5R,8R,10R,11R,12S,13S,14R)-11-(((2S,3R,4S,6R)-4-(Dimethylamino)-3-hydroxy-6-methyltetrahydro-2H-pyran-2-yl)oxy)-2-ethyl-3,10-dihydroxy-3-(((2R,4R,5S,6S)-5-hydroxy-4-methoxy-4,6-dimethyltetrahydro-2H-pyran-2-yl)oxy)-3,5,6,8,10,12,14-heptamethyl-15-oxo-1-oxa-6-azacyclopentadecan-4-yl 2-hydroxyacetate]
< 3				CC[C@H]1OC(=O)[C@H](C)[C@@H](O[C@H]2C[C@@](C)(OC)[C@@H](O)[C@H](C)O2)[C@H](C)[C@@H](O[C@@H]2O[C@H](C)C[C@H](N(C)C)[C@H]2OC(=O)CO)[C@](C)(O)C[C@@H](C)CN(C)[C@H](C)[C@@H](O)[C@]1(C)O [Compound 1, (2S,3R,4S,6R)-4-(Dimethylamino)-2-(((2R,3S,4R,5R,8R,10R,11R,12S,13S,14R)-2-ethyl-3,4,10-trihydroxy-13-(((2R,4R,5S,6S)-5-hydroxy-4-methoxy-4,6-dimethyltetrahydro-2H-pyran-2-yl)oxy)-3,5,6,8,10,12,14-heptamethyl-15-oxo-1-oxa-6-azacyclopentadecan-11-yl)oxy)-6-methyltetrahydro-2H-pyran-3-yl 2-hydroxyacetate]
